Measured values taken from publication PMC3894848 (Journal of medicinal chemistry, 2013).
Blank lines part the entries; values can stand above or below the molecule they belong to.

Key:
BRD4 BrD1 = BRD4 BrD1 (Homo sapiens, UniProt O60885); assay: Fluorescence anisotropy competition binding assay; settings: for binding activity toward BRD4 BrD1 (in words): fluorescence anisotropy/polarization assay; for Lipophilic Ligand Efficiency: against BRD4-BrD1, LLE = pKi – ClogP
BRD4 BrD2 = BRD4 BrD2 (Homo sapiens, UniProt O60885); assay: Fluorescence anisotropy competition binding assay, BRD4 BrD2

Compound: Cc1cc(/N=N/c2cc(S(=O)(=O)O)c(C)cc2C)c(N)cc1O [Compound 1, (E)-5-((2-amino-4-hydroxy-5-methylphenyl)diazenyl)-2,4-dimethylbenzenesulfonic acid]
binding activity toward BRD4 BrD1 (in words) (BRD4 BrD1): modest activity

Compound: Cc1cc(C)c(S(=O)(=O)O)cc1/N=N/c1cc(C)c(O)c(C)c1 [Compound 2, (E)-5-(3,5-dimethyl-4-hydroxyphenylazo)-2,4-dimethylbenzenesulfonic acid]
improvement in binding affinity to the BRD4 BrDs over MS120 (1) (BRD4 BrD1; vs MS120 (1), both BRD4 BrDs): 2–3 fold

Compound: Cc1cc(/N=N/c2cccc(S(=O)(=O)Nc3ccccn3)c2)cc(C)c1O [Compound 3, (E)-3-((4-hydroxy-3,5-dimethylphenyl)diazenyl)-N-(pyridin-2-yl)benzenesulfonamide]
binding activity toward BRD4 BrD1 (in words) (BRD4 BrD1): retained the affinity of 2

Compound: Cc1cc(/N=N/c2ccc(S(=O)(=O)Nc3ccccn3)cc2)cc(C)c1O [Compound 4, (E)-4-((4-hydroxy-3,5-dimethylphenyl)diazenyl)-N-(pyridin-2-yl)benzenesulfonamide]
Lipophilic Ligand Efficiency (BRD4 BrD1): 0.78 | improvement of affinity for the BRD4 BrD1 vs compound 3 (BRD4 BrD1; vs 3): over 6 fold

Compound: Cc1cc(/N=N/c2ccc(S(=O)(=O)NCc3ccc(C(F)(F)F)cc3)cc2)cc(C)c1O [Compound 5, (E)-4-((4-hydroxy-3,5-dimethylphenyl)diazenyl)-N-(4-(trifluoromethyl)benzyl)benzenesul-fonamide]
binding activity toward BRD4 BrD1 (in words) (BRD4 BrD1): deteriorated drastically

Compound: Cc1cc(/N=N/c2ccc(S(=O)(=O)N(C)c3ccccn3)cc2)cc(C)c1O [Compound 6, (E)-4-((4-hydroxy-3,5-dimethylphenyl)diazenyl)-N-methyl-N-(pyridin-2-yl)benzenesul-fonamide]
loss in activity/affinity toward BRD4 BrD1 vs MS435 (BRD4 BrD1; vs MS435): 9 fold

Compound: Cc1cc(/N=N/c2ccc(S(=O)(=O)Nc3ccc(C(=O)O)cn3)cc2)cc(C)c1O [Compound 9, (E)-6-(4-((4-hydroxy-3,5-dimethylphenyl)diazenyl)phenylsulfonamido)nicotinic acid]
better affinity/potency toward BRD4 BrD1 than MS435 (BRD4 BrD1; vs MS435): about 3 fold

Compound: COc1ccc(NS(=O)(=O)c2ccc(/N=N/c3cc(C)c(O)c(C)c3)cc2)nc1 [Compound 12, (E)-4-((4-hydroxy-3,5-dimethylphenyl)diazenyl)-N-(5-methoxypyridin-2-yl)benzenesulfon-amide]
improvement in binding affinity to the BRD4 BrD1 by nitrogen in the C ring (BRD4 BrD1; 12 vs. 13): 13 fold | selectivity for the BrD1 over the BrD2 of BRD4 (BRD4 BrD1; ratio of binding affinities): 4 fold | increase in binding affinity for the BRD4 BrD2 by nitrogen in the C ring (BRD4 BrD2; 12 vs. 13): 3 fold

Compound: Cc1cc(/N=N/c2ccc(S(=O)(=O)Nc3ccccn3)cc2)c(N)c(C)c1O [Compound 28, (E)-4-((2-amino-4-hydroxy-3,5-dimethylphenyl)diazenyl)N-(pyridin-2-yl)benzenesulfon-amide]
Lipophilic Ligand Efficiency (BRD4 BrD1): 2.77 | reduction in binding affinity to the BRD4 BrD1 vs MS436 (BRD4 BrD1): about 2 fold

Compound: COc1cc(/N=N/c2ccc(S(=O)(=O)Nc3ccccn3)cc2)c(N)cc1O [Compound 30, (E)-4-((2-amino-4-hydroxy-5-methoxyphenyl)diazenyl)-N-(pyridin-2-yl)benzenesulfon-amide]
reduction in binding affinity to the BRD4 BrD1 vs MS436 (BRD4 BrD1): 15 fold | reduction in binding affinity to the BRD4 BrD2 vs MS436 (BRD4 BrD2): 15 fold

Compound: Cc1cc(/N=N/c2ccc(S(=O)(=O)Nc3ccccn3)cc2)nc(C)c1O [Compound 31, (E)-4-((5-hydroxy-4,6-dimethylpyridin-2-yl)diazenyl)-N-(pyridin-2-yl)benzenesulfonamide]
loss in activity/affinity toward BRD4 BrD1 vs MS435 (BRD4 BrD1; vs MS435): 3 fold

Compound: Cc1nc(/N=N/c2ccc(S(=O)(=O)Nc3ccccn3)cc2)c(C)c(C)c1O [Compound 32, (E)-4-((5-hydroxy-3,4,6-trimethylpyridin-2-yl)diazenyl)-N-(pyridin-2-yl)benzenesulfon-amide]
loss in activity/affinity toward BRD4 BrD1 vs MS435 (BRD4 BrD1; vs MS435): 3 fold

Compound: Cc1cc(/N=N/c2ccc(S(=O)(=O)NCc3ccc(C(F)(F)F)cc3)cc2)ccc1O [Compound 35, (E)-4-((4-hydroxy-3-methylphenyl)diazenyl)-N-(4-(trifluoromethyl)benzyl)benzenesulfon-amide]
binding activity toward BRD4 BrD1 (in words) (BRD4 BrD1): deteriorated drastically

More lines, now with the values ahead:

binding activity toward BRD4 BrD1 (in words) (BRD4 BrD1): deteriorated drastically
Compound: Cc1cc(/N=N/c2ccc(S(=O)(=O)NCc3ccc(C(F)(F)F)cc3)cc2)c(N)cc1O [Compound 36, (E)-4-((2-amino-4-hydroxy-5-methylphenyl)diazenyl)-N-(4-(trifluoromethyl)benzyl)benzene sulfonamide]

binding activity toward BRD4 BrD1 (in words) (BRD4 BrD1): completely lost binding activity
Compound: COc1c(C)cc(/N=N/c2ccc(S(=O)(=O)Nc3ccccn3)cc2)cc1C [Compound 37, (E)-4-((4-methoxy-3,5-dimethylphenyl)diazenyl)-N-(pyridin-2-yl)benzenesulfonamide]

binding activity toward BRD4 BrD1 (in words) (BRD4 BrD1): completely lost binding activity
Compound: CC(=O)Nc1c(C)cc(/N=N/c2ccc(S(=O)(=O)Nc3ccccn3)cc2)cc1C [Compound 38, (E)-N-(2,6-dimethyl-4-((4-(N-(pyridin-2-yl)sulfamoyl)phenyl)diazenyl)phenyl)acetamide]

loss in activity/affinity toward BRD4 BrD1 vs MS435 (BRD4 BrD1; vs MS435): about 10 fold
Compound: CC(C)c1cc(/N=N/c2ccc(S(=O)(=O)Nc3ccccn3)cc2)ccc1O [Compound 39, (E)-4-((4-hydroxy-3-isopropylphenyl)diazenyl)-N-(pyridin-2-yl)benzenesulfonamide]

loss in activity/affinity toward BRD4 BrD1 vs MS435 (BRD4 BrD1; vs MS435): about 10 fold
Compound: CC(C)(C)c1cc(/N=N/c2ccc(S(=O)(=O)Nc3ccccn3)cc2)ccc1O [Compound 40, (E)-4-((3-(tert-butyl)-4-hydroxyphenyl)diazenyl)-N-(pyridin-2-yl)benzenesulfonamide]

binding activity toward BRD4 BrD1 (in words) (BRD4 BrD1): almost completely lost their activities
Compound: CC(C)c1cc(/N=N/c2ccc(S(=O)(=O)Nc3ccccn3)cc2)cc(C(C)C)c1O [Compound 41, (E)-4-((4-hydroxy-3,5-diisopropylphenyl)diazenyl)-N-(pyridin-2-yl)benzenesulfonamide]

binding activity toward BRD4 BrD1 (in words) (BRD4 BrD1): almost completely lost their activities
Compound: CC(C)(C)c1cc(/N=N/c2ccc(S(=O)(=O)Nc3ccccn3)cc2)cc(C(C)(C)C)c1O [Compound 42, (E)-4-((3,5-di-tert-butyl-4-hydroxyphenyl)diazenyl)-N-(pyridin-2-yl)benzenesulfonamide]

reduction in binding affinity to the BRD4 BrD1 vs MS436 (BRD4 BrD1): 10 fold | reduction in binding affinity to the BRD4 BrD2 vs MS436 (BRD4 BrD2): 3 fold
Compound: Cc1cc(/N=N/c2cccc(S(=O)(=O)Nc3ccccn3)c2)c(N)cc1O [Compound 51, (E)-3-((2-amino-4-hydroxy-5-methylphenyl)diazenyl)-N-(pyridin-2-yl)benzenesulfonamide]
